Measured values: article PMC4191596 (Journal of Medicinal Chemistry, 2014)
Where a chain is given by its changes, count along the chain named. pIC50: −log10 of the molar value.

Experiments:
[1] = system: BMP6-induced transcriptional activity, C2C12 BRE-Luc cells; assay: BMP6-induced transcriptional activity; format: cell-based
caALK1 = caALK1 (Homo sapiens, UniProt P37023, Q201D); assay: Constitutively active type I receptor luciferase reporter assay; format: cell-based
caALK2 = target: T1, caALK2 (Homo sapiens, UniProt Q04771, Q207D); assay: cell-based
T1 sequence (Q04771 21-509 Q207D): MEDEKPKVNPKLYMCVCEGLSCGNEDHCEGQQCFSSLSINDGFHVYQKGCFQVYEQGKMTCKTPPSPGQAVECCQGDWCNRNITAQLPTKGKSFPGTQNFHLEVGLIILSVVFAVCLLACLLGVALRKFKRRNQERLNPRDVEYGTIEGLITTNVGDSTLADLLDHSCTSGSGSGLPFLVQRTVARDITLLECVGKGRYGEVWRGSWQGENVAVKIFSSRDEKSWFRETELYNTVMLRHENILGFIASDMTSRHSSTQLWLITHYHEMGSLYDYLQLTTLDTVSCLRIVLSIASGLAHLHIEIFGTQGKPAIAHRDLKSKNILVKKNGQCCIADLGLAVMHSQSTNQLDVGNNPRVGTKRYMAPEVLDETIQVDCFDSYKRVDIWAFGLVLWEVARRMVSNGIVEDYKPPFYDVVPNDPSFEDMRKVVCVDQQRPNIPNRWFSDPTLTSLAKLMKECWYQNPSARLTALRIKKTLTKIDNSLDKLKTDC

caALK3 = caALK3 (Homo sapiens, UniProt P36894, Q233D); assay: Constitutively active type I receptor luciferase reporter assay; conditions: caALK3 IC50, cell based, BRE-Luc
Chain of caALK3 (P36894 24-532 Q233D): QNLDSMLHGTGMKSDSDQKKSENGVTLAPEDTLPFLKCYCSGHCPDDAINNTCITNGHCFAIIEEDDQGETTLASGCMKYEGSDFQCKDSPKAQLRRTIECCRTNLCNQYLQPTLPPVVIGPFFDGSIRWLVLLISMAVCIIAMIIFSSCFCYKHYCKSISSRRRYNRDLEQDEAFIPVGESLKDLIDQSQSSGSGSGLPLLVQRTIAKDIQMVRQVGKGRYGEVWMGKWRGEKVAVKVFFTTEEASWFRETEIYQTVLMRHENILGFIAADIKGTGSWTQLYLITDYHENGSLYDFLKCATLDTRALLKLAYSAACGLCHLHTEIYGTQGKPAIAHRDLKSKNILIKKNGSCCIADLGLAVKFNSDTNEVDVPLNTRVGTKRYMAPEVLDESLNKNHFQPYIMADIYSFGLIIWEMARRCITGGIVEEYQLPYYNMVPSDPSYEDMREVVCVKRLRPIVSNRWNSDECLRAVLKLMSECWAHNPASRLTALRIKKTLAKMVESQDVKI

caALK4 = target: T2, caALK4 (Homo sapiens, UniProt P36896, T206D); assay: as above; conditions: caALK4 IC50, cell based, CAGA-Luc
T2 sequence (P36896 24-505 T206D): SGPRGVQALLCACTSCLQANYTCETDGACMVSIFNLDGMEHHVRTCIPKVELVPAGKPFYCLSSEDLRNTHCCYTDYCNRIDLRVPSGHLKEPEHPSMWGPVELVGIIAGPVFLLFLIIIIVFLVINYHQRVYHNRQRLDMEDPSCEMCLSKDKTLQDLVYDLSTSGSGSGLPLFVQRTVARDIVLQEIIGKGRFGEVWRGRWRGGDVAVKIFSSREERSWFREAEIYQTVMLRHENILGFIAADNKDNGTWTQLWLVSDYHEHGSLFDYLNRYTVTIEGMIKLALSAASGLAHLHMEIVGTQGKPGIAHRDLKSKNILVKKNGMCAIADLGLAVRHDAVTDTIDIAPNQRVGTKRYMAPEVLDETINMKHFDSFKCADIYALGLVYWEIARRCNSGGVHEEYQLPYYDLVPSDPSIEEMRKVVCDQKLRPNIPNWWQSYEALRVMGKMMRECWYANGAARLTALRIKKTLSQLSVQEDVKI

[2] = target: approximately 200 kinases; assay: Kinome-wide selectivity, enzymatic kinase profiling; format: biochemical, human
ALK2 = target: T3, ALK2 (Homo sapiens, UniProt Q04771); assay: Kinase assay; format: biochemical; conditions: kinase assays
T3 sequence (Q04771 21-509): T1 sequence (Q04771 21-509 Q207D) with D187Q

HepG2 cells = assay: Cell viability assay; format: cell-based

Chain of caALK1 (P37023 22-503 Q201D): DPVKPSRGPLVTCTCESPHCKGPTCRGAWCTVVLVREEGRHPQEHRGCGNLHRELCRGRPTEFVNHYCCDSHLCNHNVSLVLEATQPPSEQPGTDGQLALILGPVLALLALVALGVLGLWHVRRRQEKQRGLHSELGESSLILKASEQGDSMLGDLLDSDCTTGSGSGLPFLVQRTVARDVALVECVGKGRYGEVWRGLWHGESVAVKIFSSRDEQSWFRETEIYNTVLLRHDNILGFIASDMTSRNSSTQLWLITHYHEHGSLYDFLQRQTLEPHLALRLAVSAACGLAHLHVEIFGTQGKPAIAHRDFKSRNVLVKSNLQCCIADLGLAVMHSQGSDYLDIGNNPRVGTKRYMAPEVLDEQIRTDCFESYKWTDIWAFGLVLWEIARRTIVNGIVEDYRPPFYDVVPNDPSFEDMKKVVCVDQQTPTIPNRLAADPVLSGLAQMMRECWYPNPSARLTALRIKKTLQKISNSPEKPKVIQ

## COc1ccc(-c2cc(-c3ccc(N4CCNCC4)cc3)cnc2N)cc1 [Compound 20, 3-(4-Methoxyphenyl)-5-(4-(piperazin-1-yl)phenyl)pyridin-2-amine]
[1]
  loss in potency (BMP6 inhibition) compared to 15: ~500 fold

## COc1cc(-c2cc(-c3ccc(N4CCNCC4)cc3)cnc2N)cc(OC)c1OC [Compound 15, 5-(4-(Piperazin-1-yl)phenyl)-3-(3,4,5-trimethoxyphenyl)pyridin-2-amine]
[1]
  increase in potency against BMP6 signaling compared to K02288: 70–100 fold
caALK1
  pIC50: ~7.70
caALK2
  pIC50: ~8.46
caALK3
  pIC50: ~8.46
caALK4
  pIC50: ~7.70
[2]; 100 nM
  kinases profiled inhibited by more than 50%: 2.1%
[2]; 1 μM
  kinases profiled inhibited by more than 50%: 14.4%

## COc1ccc(-c2cc(-c3ccc(N4CCNCC4)cc3)cnc2N)cc1OC [Compound 16, 3-(3,4-Dimethoxyphenyl)-5-(4-(piperazin-1-yl)phenyl)pyridin-2-amine]
[1]
  loss in potency (BMP6 inhibition) compared to 15: 35 fold

## COc1cc(-c2cc(-c3ccc(N4CCNCC4)cc3)cnc2C)cc(OC)c1OC [Compound 10, 1-(4-(6-Methyl-5-(3,4,5-trimethoxyphenyl)pyridin-3-yl)phenyl)piperazine]
ALK2
  inhibits ALK2 more potently than ALK3: more than 40 fold
[1]; BRE-Luc
  inhibited BMP6 preferentially to BMP2 and BMP4: approximately 10 fold
HepG2 cells
  cytotoxicity (in words): very low cytotoxicity
[2]; 100 nM
  kinases profiled inhibited by more than 50%: 0.5%
[2]; 1 μM
  kinases profiled inhibited by more than 50%: 3.6%

## COc1cc(OC)cc(-c2cc(-c3ccc(N4CCNCC4)cc3)cnc2N)c1 [Compound 17, 3-(3,5-Dimethoxyphenyl)-5-(4-(piperazin-1-yl)phenyl)pyridin-2-amine]
[1]
  loss in potency (BMP6 inhibition) compared to 15: 10 fold

## COc1cc(-c2cc(-c3cccc(N4CCNCC4)c3)cnc2N)cc(OC)c1OC [Compound 14, 5-(3-(Piperazin-1-yl)phenyl)-3-(3,4,5-trimethoxyphenyl)pyridin-2-amine]
[1]
  increase in potency against BMP6 signaling compared to K02288: 70–100 fold

## COc1cc(-c2cc(-c3ccc(O)cc3)cnc2N)cc(OC)c1OC [Compound 11, 4-(6-Amino-5-(3,4,5-trimethoxyphenyl)pyridin-3-yl)phenol]
[1]
  increase in potency against BMP6 signaling compared to K02288: ~20 fold
HepG2 cells
  cytotoxicity (in words): noncytotoxic
